Like-named read-outs stand apart in the source and are kept apart here.
Tests used:
Assay type in all cases: in vivo, rhesus monkey
[1] = target: T1, α7 nicotine receptor (Macaca mulatta, UniProt Q866A2)
T1 construct: from tissue; host or cells: brain of the living animal (in vivo PET)
Protocol: (§1) After 30 minutes, compound (Ia) or (Ib) was administered by intravenous injection, and dynamic measurement was performed for 91 minutes. After the obtained images were reconstituted, a region of interest (ROI) was set in each part of the brain, and kinetics of radioactivity was determined in each region.

[2] = Test for determining the amount of uptake of positron-emitting source compound (PET of brain after intravenous injection); conditions: for kinetics in the brain: rhesus monkey, intravenous, PET
Protocol: A rhesus monkey (male, 5.5 kg in weight) was fasted overnight prior to the assay date. The monkey was seated on a monkey chair, and its head was fixed in a gantry of an animal PET camera (SHR-7700 manufactured by Hamamatsu Photonics K.K.) by a head positioner. Transmission measurement was performed for 30 minutes for […]. The injection products prepared in Production Examples 1-3 and 2 were then intravenously administered in doses of 77 ng/kg weight in terms of the amount of compound (Ia) and 230 ng/kg weight in terms of the amount of compound (Ib), respectively, and dynamic measurement was performed for 180 minutes. After the obtained images were reconstituted, a region of interest (ROI) was set in each part of the brain, and kinetics of radioactivity was determined in each region.

[3] = test system: α4β2 nicotine receptor; test: Test for selectivity to α7 nicotine receptor: PET brain uptake after pre-administration of α4β2-selective agonist A85380
Protocol: as §1

T1 sequence (Q866A2 23-502): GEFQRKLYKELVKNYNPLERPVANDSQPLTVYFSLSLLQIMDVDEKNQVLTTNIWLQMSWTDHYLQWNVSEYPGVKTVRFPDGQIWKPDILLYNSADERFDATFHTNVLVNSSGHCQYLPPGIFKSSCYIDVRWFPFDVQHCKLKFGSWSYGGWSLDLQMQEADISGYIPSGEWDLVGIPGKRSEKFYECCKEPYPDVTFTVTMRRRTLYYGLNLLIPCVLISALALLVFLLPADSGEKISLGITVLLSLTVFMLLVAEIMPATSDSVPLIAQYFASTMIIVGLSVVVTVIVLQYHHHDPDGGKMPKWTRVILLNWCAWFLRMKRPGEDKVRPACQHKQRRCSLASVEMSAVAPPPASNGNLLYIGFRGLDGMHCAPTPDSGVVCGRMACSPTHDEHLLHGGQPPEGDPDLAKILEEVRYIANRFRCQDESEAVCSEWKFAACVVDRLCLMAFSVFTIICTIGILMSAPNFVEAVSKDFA

| SMILES | uptake into each part of the brain after pre-administered α7 nicotine receptor-selective agonist ([1]; SSR180711A 1 or 5 mg/kg i.v. 30 minutes before the compound, depending on the dose of the agonist) | binding selectivity to α7 nicotine receptor ([1]; conclusion from blocking with SSR180711A and A85380) | time of peak value of radioactivity, most/other parts of the brain ([2]; after the administration, brain parts except hippocampus) | time of peak value of radioactivity, hippocampus ([2]; after the administration) [min] | distribution of the concentrated compound in the brain ([2]; integrated images 40 to 60 minutes after the administration) | kinetics in the brain [2] | effect of pre-administered α4β2 nicotine receptor-selective agonist on uptake into each part of the brain ([3]; A85380 5 mg/kg i.v. 30 minutes before the compound) | binding selectivity to α7 nicotine receptor ([1]; rhesus monkey, in vivo) | uptake into each part of the brain after pre-administered α7 nicotine receptor-selective agonist ([1]; rhesus monkey, in vivo) | amount of uptake in the brain ([2]; compared with compound (Ia)) | effect of pre-administered α4β2 nicotine receptor-selective agonist on uptake into each part of the brain ([3]; rhesus monkey, in vivo) |
| --- | --- | --- | --- | --- | --- | --- | --- | --- | --- | --- | --- |
| [11CH3]c1ccc(OC(=O)N2CCN3CCC2CC3)cc1 [Compound (Ia), 4-[^11C]methyl-phenyl 1,4-diazabicyclo[3.2.2]nonane-4-carboxylate] | reduced to the level in the cerebellum | selective binding to α7 nicotine receptor | about 10 minutes | 30 | high in hippocampus, corpus striatum, thalamus, cingulate gyrus and cerebral cortex, but low in cerebellum | relatively fast | almost no effect |  |  |  |  |
| O=C(Oc1ccc([76Br])cc1)N1CCN2CCC1CC2 [Compound (Ib), 4-[^76Br]bromophenyl 1,4-diazabicyclo[3.2.2]nonane-4-carboxylate] |  |  |  | 60 |  | generally slow |  | selective binding to α7 nicotine receptor | reduced to the level in the cerebellum | not as large as that of compound (Ia) | almost no effect |
